Type in all cases: cell-based
The subject of assay [1] is Androgen receptor (Homo sapiens), P10275 [UNDEFINED MUTATION]. Put plainly: Binding affinity to AR-V7 in human 22Rv1 cells assessed as thermal stabilization at 10 uM incubated for 24 hrs by CETSA analysis.
In assay [2] the target is T1, Androgen receptor (Homo sapiens) (UniProt P10275).
T1 sequence (whole entry): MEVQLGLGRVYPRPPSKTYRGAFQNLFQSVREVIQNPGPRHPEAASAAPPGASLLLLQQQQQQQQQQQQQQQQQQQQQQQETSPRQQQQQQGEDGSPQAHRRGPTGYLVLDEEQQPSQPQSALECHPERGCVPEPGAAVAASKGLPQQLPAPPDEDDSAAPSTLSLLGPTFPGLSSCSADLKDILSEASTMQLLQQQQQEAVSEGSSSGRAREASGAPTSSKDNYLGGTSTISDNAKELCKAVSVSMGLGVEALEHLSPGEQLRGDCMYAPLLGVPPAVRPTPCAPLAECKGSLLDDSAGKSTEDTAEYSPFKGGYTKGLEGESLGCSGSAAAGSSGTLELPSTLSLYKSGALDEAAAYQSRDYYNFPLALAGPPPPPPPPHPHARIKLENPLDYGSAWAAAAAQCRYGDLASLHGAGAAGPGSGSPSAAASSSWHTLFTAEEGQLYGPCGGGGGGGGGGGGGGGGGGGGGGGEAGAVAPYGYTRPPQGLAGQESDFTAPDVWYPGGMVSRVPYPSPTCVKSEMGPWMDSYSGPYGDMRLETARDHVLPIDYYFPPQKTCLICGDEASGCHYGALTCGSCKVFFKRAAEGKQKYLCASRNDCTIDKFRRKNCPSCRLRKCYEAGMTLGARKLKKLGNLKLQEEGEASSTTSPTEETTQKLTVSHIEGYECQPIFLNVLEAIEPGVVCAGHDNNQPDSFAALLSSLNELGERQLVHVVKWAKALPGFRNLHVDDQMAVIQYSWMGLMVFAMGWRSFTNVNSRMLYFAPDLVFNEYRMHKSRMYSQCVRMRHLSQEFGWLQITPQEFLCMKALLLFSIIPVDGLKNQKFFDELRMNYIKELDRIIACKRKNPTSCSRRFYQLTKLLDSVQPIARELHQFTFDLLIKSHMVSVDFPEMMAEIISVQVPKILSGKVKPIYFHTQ
Put plainly: Binding affinity to Androgen receptor in human 22Rv1 cells assessed as thermal stabilization at 10 uM incubated for 24 hrs by CETSA analysis.

For assay [3], the system named is Androgen receptor (Homo sapiens), P10275 [UNDEFINED MUTATION]. Put plainly: Binding affinity to AR-V7 in human 22Rv1 cells at 10 uM incubated for 24 hrs by SPR analysis. On the technique in general: SPR reads the build-up and loss of mass on a sensor chip optically.
For assay [4], the target named is T1, Androgen receptor (Homo sapiens). Briefly: Binding affinity to Androgen receptor in human 22Rv1 cells at 10 uM incubated for 24 hrs by SPR analysis.

Each structure is given as a SMILES string. Activity calls are given as the source filed them. No cut-off for these calls is given here.

On to `CC(C)(c1ccc(O)cc1)c1ccc(OCc2cccc(N3CCOCC3)n2)cc1`, for which the result in assay [1] and in assay [2] was inactive. In addition, the outcome in assay [3] and in assay [4] was Active.

The values above are taken from ChEMBL document CHEMBL6153032, “Discovery of a highly potent, N-terminal domain-targeting degrader of AR-FL/AR-V7 for the treatment of prostate cancer” (Eur J Med Chem, 2025).
